Columns and labels:
Format in all cases: cell-based, human
[1] = tested on: anti-CD19 CAR-expressing T cells; test: Activation phenotype of CAR-T cells chronically stimulated with concurrent compound treatment; details: seven-day chronic stimulation, concurrent compound 0.1-1000 nM
Procedure: To simulate conditions of chronic stimulation, approximately 20,000 anti-CD19 CAR-expressing T cells of a combined CAR-T cell composition produced as described in Example 1 from two healthy adult donors were incubated with 30 μg/mL of plate-bound CAR-specific anti-idiotypic antibody (see, e.g., WO2018/023100) at 37° C. for a period of seven days. During this seven-day period, engineered CAR T cells were concurrently treated with Compound 17 (0.1-1000 nM) or a vehicle control added at day 0.

[2] = tested on: anti-CD19 CAR-expressing T cells; test: Cytolytic function of CAR-T cells co-cultured with CD19-expressing lymphoma cells in presence of compound; details: co-culture with K562.CD19, Granta-519 and Raji cells, 2.5:1 effector:target, compound present
Procedure: The cytolytic function of T cells treated with Compound 17 was assessed following co-culture of the combined CAR-T cell composition with various CD19-expressing lymphoma cells at a 2.5:1 effector:target ratio in the presence of Compound 17. The target lymphoma cells were labeled with NucLight Red (NLR) to permit their tracking by microscopy. Cytolytic activity was assessed by measuring the loss of viable target cells over a period of four to seven days, as determined by red fluorescent signal (using the IncuCyte® Live Cell Analysis System, Essen Bioscience).
Triplicate values for cell compositions manufactured from the two different healthy donors are shown.

anti-HPV16 eTCR T cells = test: Proliferation (cell counts) of chronically stimulated eTCR T cells re-stimulated with anti-Vbeta antibody; details: re-stimulation 7 days with 20 μg/mL anti-Vbeta, 100 nM compound
Excerpt: Primary human CD4+ and CD8+ T cells were isolated from healthy donors by immunoaffinity-based methods. The isolated CD4+ and CD8+ T cells were combined and stimulated with an anti-CD3/anti-CD28 reagent, and then were transduced with a lentiviral vector encoding an anti-human papillomavirus 16 (anti-HPV16) eTCR. The nucleotide sequences encoding the beta chain and the alpha chain of the eTCR were separated by a sequence encoding a 2A ribosome skip element. Following transduction, the cells were cultured in media containing human serum and cytokines for 9-10 days prior to further assessment. In another experiment to assess activity of the DGKi to rescue or reverse exhaustion, eTCR T cells were chronically stimulated for 6 days as described above in the absence of Compound 17. […] As a control, chronically stimulated eTCR T cells were re-stimulated in the absence of Compound 17 for 7 days. At the end of the 7 day re-stimulation, cell counts were determined. […] As expected, in the absence of treatment with Compound 17, there was an overall reduction in the ability of chronically stimulated T cells to proliferate compared to fresh eTCR T cells (compare conditions (1) and (3)).

[3] = tested on: anti-CD19 CAR-expressing T cells; test: Rescue treatment of chronically stimulated CAR-T cells: cytolytic activity, 2D co-culture with CD19-expressing lymphoma cells; details: rescue treatment during 2D co-culture, higher concentrations
Procedure: (§1) Anti-CD19 CAR-expressing T cells, produced as described in Example 1, were chronically stimulated with plate-bound CAR-specific anti-idiotypic antibody for seven days as described in Example 2, but in the absence of Compound 17 during chronic stimulation. Instead, chronically stimulated CAR T cells were treated with Compound 17 during re-challenge with CD19-expressing tumor cells, after which cytolytic activity and cytokine production were assessed.
The chronically stimulated CAR-T cells were incubated with various CD19-expressing lymphoma cells at a 2.5:1 effector:target ratio in the presence of DGKi (0-1000 nM). The tumor cells were labeled with NucLight Red (NLR) and tumor cell number was monitored by Incucyte®.

[4] = tested on: anti-CD19 CAR-expressing T cells; test: Rescue treatment of chronically stimulated CAR-T cells: cytokine production (MSD), 3D tumor spheroids; details: five days 3D co-culture with A549.CD19 and Granta-519 spheroids
Procedure: as §1
(§2) Supernatant was collected at day 5 from the above tumor spheroid cultures with chronically stimulated CAR-expressing T cells. Cytokine production was measured from the supernatant by meso scale discovery (MSD) analysis of the collected cell supernatants. […] Duplicate values for cell compositions manufactured from the two different healthy donors are shown.

[5] = tested on: anti-CD19 CAR-expressing T cells; test: CAR-T cell phenotype after stimulation with CAR-specific anti-idiotypic antibody (flow cytometry); details: 48-hour stimulation with 3 or 30 μg/mL anti-idiotypic antibody; compound 0.1-1000 nM; two donors
Excerpt: T cell compositions containing T cells expressing an exemplary anti-CD19 CAR were generated from leukapheresis samples from two healthy human adult donors by a process that included immunoaffinity-based selection of T cells by separately selecting CD4+ and CD8+ cells from the samples, resulting in two compositions enriched for CD4+ and CD8+ cells, respectively, per donor. Cells of the enriched CD4+ and CD8+ compositions were separately activated with anti-CD3/anti-CD28 beads and subjected to lentiviral transduction with a vector encoding an anti-CD19 CAR. […]
Prior to use, the cryopreserved CD4+ and CD8+ CAR-engineered cell compositions were thawed and combined at approximately a 1:1 CD4:CD8 ratio for each donor to prepare a combined CD4+ CAR+ and CD8+ CAR+ T cell composition. The effects of treatment with Compound 17 at various concentrations (0.1 nM, 1 nM, 10 nM, 100 nM, or 1000 nM) added at day 0 during stimulation of the combined CAR-T cell composition with a plate-bound CAR-specific anti-idiotypic antibody (see, e.g., WO2018/023100) or during co-culture with CD19-expressing cells was then assessed. […]

[6] = tested on: anti-CD19 CAR-expressing T cells; test: Rescue treatment of chronically stimulated CAR-T cells: cytokine production (MSD), 2D co-culture; details: 48 hours 2D co-culture with K562.CD19, Granta-519, Raji
Procedure: as §1
as §2, with “after 48 hours” for “at day 5”, “co-cultures of” for “tumor spheroid cultures with”, “T cells and CD19-expressing tumor” for “T”

CC[C@H]1CN([C@@H](CC)c2ccc(C(F)(F)F)cc2)[C@H](CC)CN1c1nc(=O)n(C)c2ccc(C#N)nc12 [Compound 17, 4-((2S,5R)-2,5-diethyl-4-((S)-1-(4-(trifluoromethyl)phenyl)propyl)piperazin-1-yl)-1-methyl-2-oxo-1,2-dihydropyrido[3,2-d]pyrimidine-6-carbonitrile]
populations of highly activated CAR-T cells (CD69, PD-1 high) [1]: increased populations of highly activated CAR-T cells
cytolytic function (percent specific lysis) [2]: did not affect cytolytic function
proliferation of eTCR T cells (cell counts) (anti-HPV16 eTCR T cells): increased proliferation
CAR-T cell cytolytic activity (tumor cell number) ([3]; Granta-519 cells): improved the cytolytic activity
CAR-T cell cytolytic activity (tumor cell number) ([3]; K562.CD19 cells): improved the cytolytic activity
production of IFNγ, IL-2 and TNFα in supernatant [4]: dose-dependent increase in production of all three cytokines
expression of CD27 and CD62L (% positive cells and MFI, presence vs. absence of compound) [5]: decreased
expression of CD69 and PD-1 (% positive cells and MFI, presence vs. absence of compound) [5]: increased
production of IFNγ, IL-2 and TNFα in supernatant [6]: dose-dependent increase in production of all three cytokines
